Results reported in publication PMC3071876 (Comparative biochemistry and physiology. Part B, …, 2011).
Read-outs that look alike come from different tables or passages of the source.

Key:
[1] = target: T1, zebrafish monoamine oxidase (zMAO) (Danio rerio, UniProt Q6NSN2); experiment: Steady-state kinetics of zMAO-catalyzed amine substrate oxidation; format: biochemical; conditions: for ^Dkcat: deuterium kinetic isotope effect; for kcat (H): air saturation (240 μM O2); for kcat (D): α,α-2[H] benzylamine analogue
T1 sequence (Q6NSN2 1-522): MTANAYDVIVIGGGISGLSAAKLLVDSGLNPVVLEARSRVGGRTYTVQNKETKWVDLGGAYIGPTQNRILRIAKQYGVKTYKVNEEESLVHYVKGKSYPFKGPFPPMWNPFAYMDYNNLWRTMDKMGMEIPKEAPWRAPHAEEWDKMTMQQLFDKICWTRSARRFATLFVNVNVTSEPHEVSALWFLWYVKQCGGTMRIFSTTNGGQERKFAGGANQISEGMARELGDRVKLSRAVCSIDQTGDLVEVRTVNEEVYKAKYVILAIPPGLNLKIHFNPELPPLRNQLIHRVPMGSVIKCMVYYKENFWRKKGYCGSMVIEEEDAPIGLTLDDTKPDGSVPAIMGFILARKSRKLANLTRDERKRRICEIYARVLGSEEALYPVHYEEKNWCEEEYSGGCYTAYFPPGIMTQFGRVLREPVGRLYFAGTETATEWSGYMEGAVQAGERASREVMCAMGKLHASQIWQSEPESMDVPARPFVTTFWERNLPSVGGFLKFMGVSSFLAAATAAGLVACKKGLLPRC

hMAO A [2] = target: T2, hMAO A (Homo sapiens, UniProt P21397); conditions: ref Li, cited from earlier work
T2 sequence (P21397 1-527): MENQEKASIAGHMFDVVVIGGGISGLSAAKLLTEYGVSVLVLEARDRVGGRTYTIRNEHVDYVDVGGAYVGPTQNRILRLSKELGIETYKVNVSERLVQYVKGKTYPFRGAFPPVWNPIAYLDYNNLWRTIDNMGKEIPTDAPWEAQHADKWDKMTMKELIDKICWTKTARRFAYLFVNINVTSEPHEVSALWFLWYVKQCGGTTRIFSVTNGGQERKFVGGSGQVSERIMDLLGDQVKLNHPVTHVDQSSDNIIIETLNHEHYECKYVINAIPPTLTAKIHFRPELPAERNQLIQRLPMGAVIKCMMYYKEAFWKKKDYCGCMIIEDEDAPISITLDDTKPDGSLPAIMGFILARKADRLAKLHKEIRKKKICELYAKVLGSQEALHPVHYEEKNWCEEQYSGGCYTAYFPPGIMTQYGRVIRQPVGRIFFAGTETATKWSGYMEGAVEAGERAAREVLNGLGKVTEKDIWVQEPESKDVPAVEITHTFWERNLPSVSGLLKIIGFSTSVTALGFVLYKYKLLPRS

[3] = target: T1, zebrafish monoamine oxidase (zMAO); experiment: Reversible inhibition of zMAO with kynuramine as substrate; format: biochemical
hMAO A [4] = target: T2, hMAO A; conditions: cited from earlier work; for Ki: hMAO A
hMAO B [5] = target: T3, hMAO B (Homo sapiens, UniProt P27338); experiment: Reversible inhibition of hMAO B; format: biochemical; conditions: no reference mark, indole analogues tested up to 100 μM
T3 sequence (P27338 1-520): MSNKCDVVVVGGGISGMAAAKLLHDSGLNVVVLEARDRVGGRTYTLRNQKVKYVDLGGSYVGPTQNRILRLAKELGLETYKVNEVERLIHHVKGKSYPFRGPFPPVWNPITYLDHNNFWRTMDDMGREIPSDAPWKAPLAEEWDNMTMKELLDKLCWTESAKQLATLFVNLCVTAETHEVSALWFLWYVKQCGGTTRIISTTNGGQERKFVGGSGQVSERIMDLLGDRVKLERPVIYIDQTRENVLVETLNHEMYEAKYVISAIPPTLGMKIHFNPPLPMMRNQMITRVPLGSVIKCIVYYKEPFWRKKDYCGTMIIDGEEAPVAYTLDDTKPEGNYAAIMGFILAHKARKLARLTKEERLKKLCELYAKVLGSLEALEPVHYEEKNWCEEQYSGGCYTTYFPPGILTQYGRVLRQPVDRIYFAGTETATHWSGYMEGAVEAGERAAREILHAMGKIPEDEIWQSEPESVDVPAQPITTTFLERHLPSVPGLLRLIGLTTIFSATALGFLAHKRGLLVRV

hMAO B [6] = target: T3, hMAO B; conditions: cited from earlier work
hMAO B [7] = target: T3, hMAO B; conditions: cited from earlier work; remark: listed apart in the source
[8] = substrate: NCCc1ccc(O)c(O)c1; experiment: purified protein, by the assay type; conditions: other: zMAO, 25 °C, pH 7.4
[9] = substrate: NCCC(=O)c1ccccc1N; experiment: Steady-state kinetics of zMAO-catalyzed amine substrate oxidation; format: biochemical, Danio rerio; conditions: other: zMAO, 25 °C, pH 7.4
[10] = substrate: NCCc1ccc(O)cc1; experiment: as above; format: biochemical, Danio rerio; conditions: other: zMAO, 25 °C, pH 7.4
[11] = substrate: NCc1ccccc1; experiment: as above; format: biochemical, Danio rerio; conditions: other: zMAO, para-substituted benzylamine; pH 7.4; 25.0 °C
[12] = substrate: NCCCCc1ccccc1; experiment: as above; format: biochemical, Danio rerio; conditions: other: zMAO, 25 °C, pH 7.4
[13] = read-out: Km(H), zMAO, para-substituted benzylamine
[14] = zMAO, para-substituted benzylamine
[15] = zMAO, hMAO A specific inhibitors (Table 2), kynuramine substrate
[16] = ref Nandigama and Edmondson (2000)
[17] = zMAO, hMAO B specific inhibitors (Table 3), kynuramine substrate

Molecule: NCc1ccc(Cl)cc1 [p-CI]
- Km [1, 13]: 94 ± 10 µM
- ^Dkcat ([1]; zMAO): 5.9 ± .2 min⁻¹
- kcat (H) [1, 14]: 0.583 ± 0.017 s⁻¹
- kcat (D) ([1]; zMAO): 0.0983 ± 0.00283 s⁻¹

Molecule: NCc1ccc(C(F)(F)F)cc1 [p-CF3]
- Km [1, 13]: 115 ± 36 µM
- ^Dkcat ([1]; zMAO): 4.2 ± 0.3 min⁻¹
- kcat (H) [1, 14]: 1.57 ± 0.12 s⁻¹
- kcat (D) ([1]; zMAO): 0.375 ± 0.025 s⁻¹

Molecule: NCCc1ccc(O)cc1 [Tyramine]
- kcat ([1]; zMAO, 25 °C, pH 7.4): 7.78 s⁻¹
- kcat (hMAO A [2]; (2006), listed as tyramine): 182 min⁻¹
- Km (hMAO A [2]; (2006)): 427 ± 18 µM
- kcat (hMAO A [2]; (2006)): 182 ±26 ^c min^−1

Molecule: Cc1nccc2c1[nH]c1ccccc12 [Harmane]
- Ki [3]: 0.13 ± 0.02 µM

Molecule: NCc1ccc(C(=O)O)cc1 [p-Carboxybenzylamine]
- Km ([1]; zMAO, 25 °C, pH 7.4): 76 ± 8 µM
- kcat ([1]; zMAO, 25 °C, pH 7.4): 0.0883 ± 0.0033 s⁻¹

Molecule: CS(=O)(=O)O.Cc1ccc2c(c1)c1c3n2CCNC3CCC1 (stereo not drawn) [Pirlindole Mesylate]
- Ki [3, 15]: 2.4 ± 0.4 µM
- Ki (hMAO A [4]; ref Wang, et al. (2009)): 0.92 ± 0.04 µM
- Ki (hMAO B [5]): No Inhibition

Molecule: Cn1c(=O)c2c(nc(C=Cc3cccc(Cl)c3)n2C)n(C)c1=O [8-(3-Chlorostyryl)-caffeine]
- Ki [3]: 2.4 ± 0.6 µM

Molecule: NCCc1ccc(O)c(O)c1 [Dopamine]
- kcat ([1]; zMAO, 25 °C, pH 7.4): 4.03 s⁻¹
- Km (hMAO B [6]; [16]): 128 ± 15 µM
- kcat (hMAO B [6]; [16]): 65 ±12 ^b min^−1
- Km (hMAO A [2]; et al. (2002)): 240 ± 42 µM
- kcat (hMAO A [2]; et al. (2002)): 71 ±4 ^a min^−1

Molecule: C[C@H](N)Cc1ccccc1 [d-Amphetamine]
- Mode of inhibition ([3]; zMAO catalyzed kynuramine oxidation): uncompetitive inhibitor
- Ki [3, 15]: 38 ± 5.1 µM
- Mode of inhibition (hMAO A [4]; human MAO A, ref Vintém et al., 2005): competitively inhibits
- Ki (hMAO B [7]; hMAO B, ref Li, (2006)): 280 ± 10 µM
- Mode of inhibition (hMAO B [7]; human MAO B, depending on the substrate, ref Pearce and Roth, 1985): either as a competitive or as a mixed inhibitor

Molecule: NCc1ccc(Br)cc1 [p-Br]
- Km [1, 13]: 103 ± 20 µM
- ^Dkcat ([1]; zMAO): 8.2 ± 0.7 min⁻¹
- kcat (H) [1, 14]: 0.667 ± 0.05 s⁻¹
- kcat (D) ([1]; zMAO): 0.0813 ± 0.00283 s⁻¹

Molecule: NCc1ccc(F)cc1 [p-F]
- Km [1, 13]: 161 ± 8 µM
- ^Dkcat ([1]; zMAO): 6.7 ± 0.2 min⁻¹
- kcat (H) [1, 14]: 0.248 ± 0.005 s⁻¹
- kcat (D) ([1]; zMAO): 0.0372 ± 0.00083 s⁻¹

Molecule: CC(C)=CCC/C(C)=C/CC/C(C)=C/CO [Farnesol, trans-trans-farnesol]
- Ki [3, 17]: No inhibition

Molecule: Cc1ccc(CN)cc1 [p-Me]
- Km [1, 13]: 67.8 ± 4.1 µM
- ^Dkcat ([1]; zMAO): 6.4 ± 0.2 min⁻¹
- kcat (H) [1, 14]: 0.115 ± 0.0017 s⁻¹
- kcat (D) ([1]; zMAO): 0.018 ± 0.00033 s⁻¹

Molecule: NCc1ccccc1 [p-H, benzylamine]
- Kd [1]: 3.3 µM
- ^Dkcat ([1]; zMAO): 2.0 ± 0.2 min⁻¹
- kcat (D) ([1]; zMAO): 0.039 ± 0.00333 s⁻¹

Molecule: NCCC(=O)c1ccccc1N [Kynuramine]
- kcat ([1]; zMAO, 25 °C, pH 7.4): 1.25 s⁻¹
- kcat (hMAO B [6]; [16]): 96 ±11 ^b min^−1
- kcat (hMAO A [2]; et al. (2002)): 125 ±8 ^a min^−1

Molecule: NCCc1c[nH]c2ccc(O)cc12 [Serotonin]
- Km (hMAO B [6]; [16]): 2270 ± 310 µM
- Km (hMAO A [2]; et al. (2002)): 295 ± 46 µM

Molecule: COc1ccc(CN)cc1 [p-MeO]
- Km [1, 13]: 55.5 ± 4.1 µM
- ^Dkcat ([1]; zMAO): 5.9 ± 0.7 min⁻¹
- kcat (H) [1, 14]: 0.138 ± 0.012 s⁻¹
- kcat (D) ([1]; zMAO): 0.0237 ± 0.00083 s⁻¹

Molecule: CC(C)(C)c1ccc(CN)cc1 [p-t-Butyl]
- Km [1, 13]: 48 ± 6 µM
- ^Dkcat ([1]; zMAO): 2.0 ± 0.1 min⁻¹
- kcat (H) [1, 14]: 0.115 ± 0.0033 s⁻¹
- kcat (D) ([1]; zMAO): 0.0567 ± 0.0033 s⁻¹

Molecule: NCc1cccnc1 [3-Aminomethylpyridine]
- Substrate behaviour ([1]; zMAO): Not a Substrate
- Ki (hMAO A [4]; competitive inhibitor, ref Li, (2006)): 5200 µM
- kcat (hMAO B [6]; ref Li, (2006)): 223 ±5 ^c min^−1

Molecule: C(C=Cc1ccccc1)=Cc1ccccc1 [1,4-Diphenyl-1,3-Butadiene]
- Ki [3, 17]: No inhibition

Molecule: C[C@H](NCc1ccc(OCc2cccc(F)c2)cc1)C(N)=O [Safinamide]
- Ki [3, 17]: No inhibition

Molecule: C(=CCc1ccccc1)Cc1ccccc1 [1,4-Diphenyl-2-Butene]
- Ki [3, 17]: No inhibition

Molecule: CS(=O)(=O)O.c1cc2c(cc1C1CCCCC1)c1c3n2CCNC3CCC1 (stereo not drawn) [Tetrindole Mesylate]
- Ki [3, 15]: 34.1 ± 2 µM
- Ki (hMAO A [4]; ref Wang, et al. (2009)): 5.3 ± 0.2 µM
- Ki (hMAO B [5]): No Inhibition

B1: zebrafish monoamine oxidase (zMAO) (Danio rerio) (protein)
chain: T1 sequence (Q6NSN2 1-522)
- Km [8]: 88 ± 14 µM
- kcat [8]: 4.03 s⁻¹
- Km [9]: 58 ± 5 µM
- kcat [9]: 1.25 ± 0.0333 s⁻¹
- Km [10]: 18 ± 3 µM
- kcat [10]: 7.78 ± 0.333 s⁻¹
- Km [11]: 82.2 ± 9.0 µM
- kcat [11]: 0.0783 ± 0.0017 s⁻¹
- Km [12]: 185 ± 17 µM
- kcat [12]: 2.07 ± 0.0667 s⁻¹
- kcat/Km [12]: 11200 M⁻¹ s⁻¹
